Source: PubChem BioAssay (NCI)
“And” between values parts separate entries of the source, which are not always exact repeats. Equal entries are not always repeated.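 Results reflect a 48-hour exposure of cells in 96-well plates to compound at five concentrations. Here, GI50 denotes the concentration required for 50% inhibition of growth. At the TGI there is no net growth.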

What follows are compounds tested on CCRF-CEM leukemia (assay: growth of human tumour cells (NCI), 48 h).

SMILES | GI50 [µM] | TGI [µM]
CNC(=O)c1ccccc1Nc1nc(Nc2ccc(N3CCOCC3)cc2OC)ncc1Cl | 0.531 | > 81.9
O=[S@@]1Nc2ccc(Br)cc2S1 | – | > 100
CC(=O)C(CN(C(C)C)C(C)C)C(c1ccccc1)c1c(O)c2ccccc2oc1=O (stereo unspecified) | – | > 100
COc1ccc2c(c1)C1(C=N2)CCN(C(C)=O)CC1 | – | > 100
O=C1NC2(CCCCC2)C2CCCCC(O)C12 (stereo unspecified) | – | > 100
CCOC(=O)C1=C(C)CC2C(=O)OC(=O)C2C1(C)C (stereo unspecified) | – | > 100
Oc1ccc(Cl)cc1-c1cc(-c2ccccc2Cl)[nH]n1 | 2.71 | > 100
CCOC(=O)C(Sc1ccccc1)c1c(OC)cc(=O)oc1/C=[N+](/[O-])c1ccc(N(C)C)cc1 (stereo unspecified) | – | 15.4
C/C(CCn1[nH]c(=O)ccc1=O)=N\O | – | > 100
COc1ccccc1NC(=O)CC(=O)n1nc(C)c(N=Nc2ccccc2C(=O)O)c1C | – | > 100
CC(=O)N1[C@H](C(=O)O)CS[C@H]1c1ccncc1 | – | > 100
CC1(C)OC(=O)C(=Cc2ccc(O)cc2)C(=O)O1 | – | > 100
COc1ccc(C2=CSc3cc(Cl)c(C)cc3S(=O)(=O)N2C(C)=O)cc1 | 38.6 | > 100
O=C(O)CCSC(=O)Nc1cccc(F)c1 | – | > 100
CCCCCCCCSC1=CC(=O)c2nc3ccccc3c3ccnc1c23 | 60.7 | > 100
CCNC1C2(CCCCC2)NC(=O)C12CCCCC2 (stereo unspecified) | – | > 100
O=c1n(CC2CO2)c(=O)n(CC2CO2)n1CC1CO1 (stereo unspecified) | 3.27 | > 80.2
c1cc2c(cc1NC1=NCCO1)CCC2 | – | > 10

These compounds were tested on HOP-92 NSCLC (assay: growth of human tumour cells (NCI), 48 h).

SMILES | GI50 | TGI [µM]
NC(CSC(c1ccccc1)(c1ccccc1)c1ccc2c(c1)OCO2)C(=O)O (stereo unspecified) | 0.75 µM | 36.9
C=CCc1cc(OC)c2c(c1)C(O)CC(c1ccc(OC)c(OC)c1)O2 (stereo unspecified) | – | > 100
O=C(NCCNc1nccc(-c2c(-c3cccc(O)c3)nc3sccn23)n1)c1ccccc1O | 2.92 µM | 28.6
CCCCCCCC(=O)SCC/C=C/[C@@H]1CC(=O)NCc2cccc(n2)C2=N[C@@](C)(CS2)C(=O)N[C@@H](C(C)C)C(=O)N1 | 0.481 µM | 9.31
CC(C)=CCCc1c(C)ccc2c1C(=O)C(=O)C(C(C)C)=C2 | – | 6.43
COC(=O)[C@@H](C)C[C@H](Cc1ccc(F)cc1)NC(=O)c1csc([C@@H](C[C@H](C(C)C)N(C)C(=O)[C@@H](NC(=O)[C@H]2CCCCN2C)C(C)C)OC(C)=O)n1 | 0.215 µM and 0.0783 µM | 11.8
COc1ccc2c(c1)C(=O)/C(=C/c1ccc(OCC(=O)Nc3nccs3)cc1)O2 | 0.161 µM | 0.369
Cc1cnc(NC(=O)C(Cc2ccccc2)NC(=O)c2ccccc2)s1 (stereo unspecified) | 29.9 µM | > 100
CSc1ccc(/C=C2\CN(C)C/C(=C\c3ccc(SC)cc3)C2=O)cc1 | – | > 100
Nc1ccc(C(=O)N/C(=C\c2ccc3c(c2)OCO3)c2nc3[nH]c(=S)[nH]c(=O)c3[nH]2)cc1 | – | > 100
COC(=O)[C@@]12C3=NO[C@]1(C(=O)OC)C(O[Si](C)(C)C(C)(C)C)[C@H]1OC(C)(C)O[C@H]1[C@@H]2C(OCc1ccccc1)CC3 (stereo partly specified) | – | 22.6
O=C(O)c1cc(C(=O)O)cc(N2C(=O)c3ccccc3C2=O)c1 | – | > 100
CNC(=O)c1ccccc1Nc1nc(Nc2ccc(N3CCOCC3)cc2OC)ncc1Cl | 0.0571 µM | 1.03
COc1c2ccoc2c(/C=C/C=O)c2oc(-c3ccccc3)cc(=O)c12 | 11.5 µM | > 100
CCN(CC)CC(C(=O)Nc1c(C)cccc1C)/C(C)=N\NC(=O)C[N+](C)(C)C (stereo unspecified) | – | > 100
O=[S@@]1Nc2ccc(Br)cc2S1 | – | > 100
COc1ccc2c(c1)C1(C=N2)CCN(C(C)=O)CC1 | – | > 100
CCOC(=O)C1=C(C)CC2C(=O)OC(=O)C2C1(C)C (stereo unspecified) | – | > 100
CNC(=O)c1cc(Oc2ccc3nc(NC(=O)Nc4ccc(Cl)c(C(F)(F)F)c4)sc3c2)ccn1 | 1.15 µM | 3.24
C/C(CCn1[nH]c(=O)ccc1=O)=N\O | – | > 100
CC(=O)N1[C@H](C(=O)O)CS[C@H]1c1ccncc1 | – | > 100
CC1(C)OC(=O)C(=Cc2ccc(O)cc2)C(=O)O1 | – | > 100
COc1ccc(C2=CSc3cc(Cl)c(C)cc3S(=O)(=O)N2C(C)=O)cc1 | 21.9 µM | > 100
CC(=O)OC1COC(n2c(=S)n(-c3ccc(C)cc3)c(=O)c3ccccc32)C(OC(C)=O)C1OC(C)=O (stereo unspecified) | – | > 100
COc1cccc(NC(=O)CC(=O)n2nc(C)c(N=Nc3ccccc3)c2C)c1 | – | > 100
CCCCCCCCSC1=CC(=O)c2nc3ccccc3c3ccnc1c23 | 80 µM | > 100
O=c1n(CC2CO2)c(=O)n(CC2CO2)n1CC1CO1 (stereo unspecified) | 49.3 µM | > 100
c1cc2c(cc1NC1=NCCO1)CCC2 | – | > 10

These compounds were tested on OVCAR-5 ovarian (assay: growth of human tumour cells (NCI), 48 h).

SMILES | GI50 [µM] | TGI [µM]
NC(CSC(c1ccccc1)(c1ccccc1)c1ccc2c(c1)OCO2)C(=O)O (stereo unspecified) | 7.22 | > 100
C=CCc1cc(OC)c2c(c1)C(O)CC(c1ccc(OC)c(OC)c1)O2 (stereo unspecified) | – | > 100
O=C(NCCNc1nccc(-c2c(-c3cccc(O)c3)nc3sccn23)n1)c1ccccc1O | 13.3 | 65.3
CCCCCCCC(=O)SCC/C=C/[C@@H]1CC(=O)NCc2cccc(n2)C2=N[C@@](C)(CS2)C(=O)N[C@@H](C(C)C)C(=O)N1 | 0.771 | > 33.3
COC(=O)[C@@H](C)C[C@H](Cc1ccc(F)cc1)NC(=O)c1csc([C@@H](C[C@H](C(C)C)N(C)C(=O)[C@@H](NC(=O)[C@H]2CCCCN2C)C(C)C)OC(C)=O)n1 | – | > 16.7
COc1ccc2c(c1)C(=O)/C(=C/c1ccc(OCC(=O)Nc3nccs3)cc1)O2 | 1.79 | 10.2
Cc1cnc(NC(=O)C(Cc2ccccc2)NC(=O)c2ccccc2)s1 (stereo unspecified) | 25.3 | 63.7
CCOC(=O)COc1cccc2c1C(=O)CCO2 | – | > 100
CSc1ccc(/C=C2\CN(C)C/C(=C\c3ccc(SC)cc3)C2=O)cc1 | – | > 100
Nc1ccc(C(=O)N/C(=C\c2ccc3c(c2)OCO3)c2nc3[nH]c(=S)[nH]c(=O)c3[nH]2)cc1 | – | > 100
O[C@H]1[C@H]2c3cc4c(cc3CN3CCC(=C[C@@H]1O)[C@H]23)OCO4 | – | 22
O=C(O)c1cc(C(=O)O)cc(N2C(=O)c3ccccc3C2=O)c1 | – | > 100
COc1c2ccoc2c(/C=C/C=O)c2oc(-c3ccccc3)cc(=O)c12 | 22.3 | 63.7
CCN(CC)CC(C(=O)Nc1c(C)cccc1C)/C(C)=N\NC(=O)C[N+](C)(C)C (stereo unspecified) | – | > 100
CC(=O)C(CN(C(C)C)C(C)C)C(c1ccccc1)c1c(O)c2ccccc2oc1=O (stereo unspecified) | – | > 100
COc1ccc2c(c1)C1(C=N2)CCN(C(C)=O)CC1 | – | > 100

SMILES | GI50 [µM] | TGI [µM]
O=C1NC2(CCCCC2)C2CCCCC(O)C12 (stereo unspecified) | – | > 100
COc1ccc(-n2/c(=N/C(=S)N(C)C)ss/c2=N\C(=S)N(C)C)cc1 | – | > 100
CCOC(=O)C1=C(C)CC2C(=O)OC(=O)C2C1(C)C (stereo unspecified) | – | > 100
Oc1ccc(Cl)cc1-c1cc(-c2ccccc2Cl)[nH]n1 | 8.88 | > 100
CCOC(=O)C(Sc1ccccc1)c1c(OC)cc(=O)oc1/C=[N+](/[O-])c1ccc(N(C)C)cc1 (stereo unspecified) | – | 83.1
CNC(=O)c1cc(Oc2ccc3nc(NC(=O)Nc4ccc(Cl)c(C(F)(F)F)c4)sc3c2)ccn1 | 2.46 | 7.55
C/C(CCn1[nH]c(=O)ccc1=O)=N\O | – | > 100
COc1ccccc1NC(=O)CC(=O)n1nc(C)c(N=Nc2ccccc2C(=O)O)c1C | – | > 100
CC(=O)N1[C@H](C(=O)O)CS[C@H]1c1ccncc1 | – | > 100
CC1(C)OC(=O)C(=Cc2ccc(O)cc2)C(=O)O1 | – | > 100
COc1ccc(C2=CSc3cc(Cl)c(C)cc3S(=O)(=O)N2C(C)=O)cc1 | 52.7 | > 100
CC(=O)OC1COC(n2c(=S)n(-c3ccc(C)cc3)c(=O)c3ccccc32)C(OC(C)=O)C1OC(C)=O (stereo unspecified) | – | > 100
O=C(O)CCSC(=O)Nc1cccc(F)c1 | – | > 100
CCCCCCCCSC1=CC(=O)c2nc3ccccc3c3ccnc1c23 | > 100 | > 100
CCNC1C2(CCCCC2)NC(=O)C12CCCCC2 (stereo unspecified) | – | > 100
O=c1n(CC2CO2)c(=O)n(CC2CO2)n1CC1CO1 (stereo unspecified) | 63.1 | > 100
